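Briefly, cells in 96-well plates were exposed to five compound concentrations for 48 h, and endpoints were estimated by linear interpolation. TGI is the concentration that stops growth completely.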
Key:
Assay in all cases: NCI-60 cell line screen, 48 h
A549 NSCLC = tested on: A549 NSCLC
ACHN renal = tested on: ACHN renal
CAKI-1 renal = tested on: CAKI-1 renal
CCRF-CEM leukemia = tested on: CCRF-CEM leukemia
COLO 205 colon = tested on: COLO 205 colon
DLD-1 colon = tested on: DLD-1 colon
DMS 114 small cell lung = tested on: DMS 114 small cell lung
DMS 273 small cell lung = tested on: DMS 273 small cell lung
HCC-2998 colon = tested on: HCC-2998 colon
HCT-116 colon = tested on: HCT-116 colon
HCT-15 colon = tested on: HCT-15 colon
HL-60(TB) leukemia = tested on: HL-60(TB) leukemia
HOP-18 NSCLC = tested on: HOP-18 NSCLC
HOP-92 NSCLC = tested on: HOP-92 NSCLC
HT29 colon = tested on: HT29 colon
KM12 colon = tested on: KM12 colon
LOX IMVI melanoma = tested on: LOX IMVI melanoma
LXFL 529 NSCLC = tested on: LXFL 529 NSCLC
MALME-3M melanoma = tested on: MALME-3M melanoma
MOLT-4 leukemia = tested on: MOLT-4 leukemia
NCI-H226 lung = tested on: NCI-H226 lung
NCI-H23 lung = tested on: NCI-H23 lung
NCI-H460 lung = tested on: NCI-H460 lung
NCI-H522 lung = tested on: NCI-H522 lung
OVCAR-4 ovarian = tested on: OVCAR-4 ovarian
OVCAR-5 ovarian = tested on: OVCAR-5 ovarian
RPMI-8226 leukemia = tested on: RPMI-8226 leukemia
RXF 393 renal = tested on: RXF 393 renal
SF-268 CNS = tested on: SF-268 CNS
SF-295 CNS = tested on: SF-295 CNS
SK-MEL-2 melanoma = tested on: SK-MEL-2 melanoma
SK-MEL-28 melanoma = tested on: SK-MEL-28 melanoma
SK-MEL-5 melanoma = tested on: SK-MEL-5 melanoma
SK-OV-3 ovarian = tested on: SK-OV-3 ovarian
SN12C renal = tested on: SN12C renal
SNB-19 CNS = tested on: SNB-19 CNS
SNB-75 CNS = tested on: SNB-75 CNS
SNB-78 CNS = tested on: SNB-78 CNS
SR leukemia = tested on: SR leukemia
SW-620 colon = tested on: SW-620 colon
TK-10 renal = tested on: TK-10 renal
U251 CNS = tested on: U251 CNS
UACC-257 melanoma = tested on: UACC-257 melanoma
786-0 renal = tested on: 786-0 renal
A498 renal = tested on: A498 renal
EKVX NSCLC = tested on: EKVX NSCLC
IGROV1 ovarian = tested on: IGROV1 ovarian
K-562 leukemia = tested on: K-562 leukemia
KM20L2 colon = tested on: KM20L2 colon
M14 melanoma = tested on: M14 melanoma
M19-MEL melanoma = tested on: M19-MEL melanoma
OVCAR-3 ovarian = tested on: OVCAR-3 ovarian
OVCAR-8 ovarian = tested on: OVCAR-8 ovarian
SF-539 CNS = tested on: SF-539 CNS
UACC-62 melanoma = tested on: UACC-62 melanoma
UO-31 renal = tested on: UO-31 renal
HOP-62 NSCLC = tested on: HOP-62 NSCLC

Measured: TGI

NC1C(O)C(O)C(CO)OC1n1cc(F)c(=O)[nH]c1=O (stereo not given)
> 100 µM: A549 NSCLC | ACHN renal | CAKI-1 renal | CCRF-CEM leukemia | COLO 205 colon | DLD-1 colon | DMS 114 small cell lung | DMS 273 small cell lung | HCC-2998 colon | HCT-116 colon | HCT-15 colon | HL-60(TB) leukemia | HOP-18 NSCLC | HOP-92 NSCLC | HT29 colon | KM12 colon | LOX IMVI melanoma | LXFL 529 NSCLC | MALME-3M melanoma | MOLT-4 leukemia | NCI-H226 lung | NCI-H23 lung | NCI-H460 lung | NCI-H522 lung | OVCAR-4 ovarian | OVCAR-5 ovarian | RPMI-8226 leukemia | RXF 393 renal | SF-268 CNS | SF-295 CNS | SK-MEL-2 melanoma | SK-MEL-28 melanoma | SK-MEL-5 melanoma | SK-OV-3 ovarian | SN12C renal | SNB-19 CNS | SNB-75 CNS | SNB-78 CNS | SR leukemia | SW-620 colon | TK-10 renal | U251 CNS | UACC-257 melanoma

N#CC1(Cc2ccccc2[N+](=O)[O-])c2ccccc2C2C(N1C(=O)c1ccccc1)C2(Cl)Cl (stereo not given)
> 100 µM: 786-0 renal | A498 renal | A549 NSCLC | ACHN renal | CAKI-1 renal | CCRF-CEM leukemia | COLO 205 colon | DLD-1 colon | DMS 114 small cell lung | DMS 273 small cell lung | EKVX NSCLC | HCC-2998 colon | HCT-116 colon | HCT-15 colon | HOP-18 NSCLC | HOP-92 NSCLC | HT29 colon | IGROV1 ovarian | K-562 leukemia | KM12 colon | KM20L2 colon | LOX IMVI melanoma | LXFL 529 NSCLC | M14 melanoma | M19-MEL melanoma | MALME-3M melanoma | MOLT-4 leukemia | NCI-H226 lung | NCI-H23 lung | NCI-H460 lung | NCI-H522 lung | OVCAR-3 ovarian | OVCAR-4 ovarian | OVCAR-5 ovarian | OVCAR-8 ovarian | RXF 393 renal | SF-268 CNS | SF-295 CNS | SF-539 CNS | SK-MEL-2 melanoma | SK-MEL-28 melanoma | SK-MEL-5 melanoma | SK-OV-3 ovarian | SN12C renal | SNB-19 CNS | SNB-75 CNS | SNB-78 CNS | SW-620 colon | TK-10 renal | U251 CNS | UACC-257 melanoma | UACC-62 melanoma | UO-31 renal

O=C(OCCOC(=O)c1ccc2c(c1)C1(SCCS1)c1ccccc1-2)c1ccc2c(c1)C1(SCCS1)c1ccccc1-2
> 100 µM: A498 renal | A549 NSCLC | ACHN renal | CAKI-1 renal | CCRF-CEM leukemia | COLO 205 colon | DLD-1 colon | DMS 114 small cell lung | EKVX NSCLC | HCC-2998 colon | HCT-116 colon | HCT-15 colon | HL-60(TB) leukemia | HOP-18 NSCLC | HOP-62 NSCLC | HT29 colon | IGROV1 ovarian | K-562 leukemia | KM12 colon | KM20L2 colon | LOX IMVI melanoma | LXFL 529 NSCLC | M14 melanoma | M19-MEL melanoma | MALME-3M melanoma | MOLT-4 leukemia | NCI-H226 lung | NCI-H23 lung | NCI-H460 lung | NCI-H522 lung | OVCAR-3 ovarian | OVCAR-4 ovarian | OVCAR-5 ovarian | OVCAR-8 ovarian | RPMI-8226 leukemia | SF-268 CNS | SF-295 CNS | SF-539 CNS | SK-MEL-2 melanoma | SK-MEL-28 melanoma | SK-MEL-5 melanoma | SK-OV-3 ovarian | SN12C renal | SNB-19 CNS | SNB-75 CNS | SNB-78 CNS | SR leukemia | SW-620 colon | U251 CNS | UACC-257 melanoma | UACC-62 melanoma | UO-31 renal

CC1CC(=O)C2CC(CO)=CCCC2C1(C)CC/C(=C/CO)CO (stereo not given)
> 100 µM: 786-0 renal | A498 renal | A549 NSCLC | ACHN renal | CAKI-1 renal | CCRF-CEM leukemia | COLO 205 colon | DLD-1 colon | DMS 114 small cell lung | DMS 273 small cell lung | EKVX NSCLC | HCC-2998 colon | HCT-116 colon | HCT-15 colon | HOP-18 NSCLC | HOP-92 NSCLC | HT29 colon | IGROV1 ovarian | K-562 leukemia | KM12 colon | LXFL 529 NSCLC | M14 melanoma | M19-MEL melanoma | MALME-3M melanoma | MOLT-4 leukemia | NCI-H226 lung | NCI-H23 lung | NCI-H460 lung | NCI-H522 lung | OVCAR-3 ovarian | OVCAR-8 ovarian | RPMI-8226 leukemia | RXF 393 renal | SF-295 CNS | SK-MEL-28 melanoma | SK-MEL-5 melanoma | SK-OV-3 ovarian | SN12C renal | SNB-75 CNS | SNB-78 CNS | SW-620 colon | TK-10 renal | U251 CNS | UACC-257 melanoma | UACC-62 melanoma | UO-31 renal

CC1(C)c2ccccc2C(C)(C)C(C(=O)Nc2ccccc2)C1C(=O)O (stereo not given)
> 100 µM: 786-0 renal | A498 renal | A549 NSCLC | ACHN renal | CCRF-CEM leukemia | COLO 205 colon | DLD-1 colon | DMS 114 small cell lung | DMS 273 small cell lung | EKVX NSCLC | HCC-2998 colon | HCT-116 colon | HL-60(TB) leukemia | HOP-18 NSCLC | HOP-62 NSCLC | HOP-92 NSCLC | HT29 colon | K-562 leukemia | KM12 colon | KM20L2 colon | LOX IMVI melanoma | LXFL 529 NSCLC | M14 melanoma | M19-MEL melanoma | MALME-3M melanoma | MOLT-4 leukemia | NCI-H226 lung | NCI-H23 lung | NCI-H522 lung | OVCAR-3 ovarian | OVCAR-5 ovarian | OVCAR-8 ovarian | RPMI-8226 leukemia | RXF 393 renal | SF-268 CNS | SF-295 CNS | SF-539 CNS | SK-MEL-2 melanoma | SK-MEL-28 melanoma | SK-MEL-5 melanoma | SK-OV-3 ovarian | SN12C renal | SNB-19 CNS | SNB-75 CNS | SNB-78 CNS | SW-620 colon | TK-10 renal | U251 CNS | UACC-257 melanoma | UACC-62 melanoma | UO-31 renal
